Results reported in patent publication US20250361252A1 (EVER Neuro Pharma GmbH, priority 2022, published 2025).

What was measured:
[1] = in vivo; cited from earlier work
[2] = cited from earlier work
[3] = single dose; cited from earlier work
[4] = in NaCl solution; cited from earlier work
[5] = tested on: human hepatocytes; test: Metabolic stability / conversion to apomorphine on incubation with human hepatocytes

Molecule: N[C@@H](Cc1ccc(O)c(O)c1)C(=O)O [L-dopa]
- plasma half-life [1]: 60 to 90 min

Molecule: Apomorphine Monophosphate Potassium Salt [VIR-1-097-K]
- solubility in water: highly soluble in water

Molecule: Apomorphine Monophosphate Calcium Salt [VIR-1-097-Ca]
- solubility in water: Reduced solubility in water

Molecule: CN1CCc2cccc3c2[C@H]1Cc1ccc(O)c(O)c1-3 [apomorphine]
- incidence of nodule formation ([2]; subcutaneous infusion therapy, meta-analysis): 70%
- patients terminating therapy because of irritations ([2]; subcutaneous infusion, within one year): 70%
- duration of effect (mean) [3]: 40 min
- solubility [4]: < 10000 µg/mL

Molecule: apomorphine monophosphate
- formation of apomorphine in cell-free control group ([5]; cell-free negative control): no significant formation of apomorphine
- conversion of prodrug into apomorphine ([5]; human hepatocytes): rapidly converted into apomorphine
- half-life of apomorphine monophosphate ([5]; human hepatocytes): 33 min
- time of highest amount of apomorphine found ([5]; human hepatocytes): 10 min
- apomorphine monophosphate converted to apomorphine ([5]; human hepatocytes, within 10 min): about 30%
- apomorphine monophosphate consumed ([5]; human hepatocytes, within 60 minutes): about 75%
